In ChEMBL document CHEMBL5725356, “Anti-fibrotic pyridinones” (2017):
pEC50: −log10 of the molar value.

assay: ET-1 Assay: Fibroblasts (primary human lung and dermal, HFL-1, 3T3 etc) are seeded in 96-well plates at ~15000 cells/well and serum starved for 0-48 hours. After media exchange, compounds serially diluted in DMSO are added to the cells. After a brief incubation of ~30 min, stimulants (TGFb, serum, LPA etc) are added followed by further incubation for 16-48 hours. Media is then harvested and stored frozen in plate format for later endothelin-1 (ET-1) determination by ELISA. Toxicity measurements are made using the ATPlite kit (Perkin-Elmer). ET-1 is quantified using an ELISA kit (R&D Systems). The amount of ET-1 produced in the assay wells are back-calculated using the ELISA standard. The ability of a compound to inhibit ET-1 production is typically analyzed by fitting dose-response curves to a 4-parameter logistic function to obtain an EC50 value.; details: HFL1

CCn1ccc2c(-c3cnn(CCO)c3)cn(-c3ccc(OC(F)(F)F)cc3)c(=O)c21 and CCn1ccc2c(-c3cnn(C)c3)cn(-c3ccc(OC(F)(F)F)cc3)c(=O)c21 cannot be ordered by pEC50: over 4.30 for the first, over 4.30 for the second.

Compared with Cc1cc(=O)n(-c2ccc(OC(F)(F)F)cc2)cc1-c1cccc2ncsc12, Cc1cc(=O)n(-c2ccc(OC(F)(F)F)cc2)cc1-c1cccc2scnc12 is lower in pEC50: over 4.30 for the first, under 3.70 for the second. The first is the more potent here.

Compared with O=c1c(-c2ccc(F)cc2)c(-c2ccc(OC(F)(F)F)cc2)c1=O, Cc1cc(=O)n(-c2ccc(OC(F)(F)F)cc2)cc1-c1ccc(F)cc1 is lower in pEC50: over 4.30 for the first, under 3.70 for the second. The first is the more potent here.

O=c1ccc(-c2cccc(Cl)c2)cn1-c1ccccc1Cl and O=c1ccc(-c2cccc(Cl)c2)cn1-c1cccc(C(F)(F)F)c1 cannot be ordered by pEC50: over 4.30 for the first, over 4.30 for the second.

First: CCOc1ccc(-n2cc(Br)ccc2=O)c(C)c1
Second: CCOc1ccc(-n2cc(-c3cccc(Cl)c3)ccc2=O)c(C)c1
The pEC50 of the first is lower: under 3.70 for the first, over 4.30 for the second. The second is the more potent here.

Compared with CC(C)Oc1ccc(-n2cc(-c3cccc(Cl)c3)ccc2=O)cc1, NS(=O)(=O)c1ccc(-c2ccc(=O)n(-c3ccc(Cl)cc3)c2)cc1 is lower in pEC50: over 4.30 for the first, under 3.70 for the second. The first is the more potent here.

Cc1cc(=O)n(-c2ccccc2)cc1C and CC(C)c1ccc(=O)n(-c2ccccc2)c1 cannot be ordered by pEC50: under 3.70 for the first, under 3.70 for the second.

CC(=O)n1cc(-c2ccc(=O)n(-c3ccccc3)c2)cn1 and COc1cccc(-n2cc(-c3cn[nH]c3)ccc2=O)c1 cannot be ordered by pEC50: under 3.70 for the first, under 3.70 for the second.

Cc1cc(=O)n(-c2ccc(OC(F)(F)F)cc2)cc1-c1ccnn1C and Cc1cc(=O)n(-c2ccc(OC(F)(F)F)cc2)cc1C cannot be ordered by pEC50: under 3.70 for the first, under 3.70 for the second.

C[C@H]1CCC(=O)N(c2ccccc2)C1 and C[C@@H]1CCC(=O)N(c2ccccc2)C1 cannot be ordered by pEC50: under 3.70 for the first, under 3.70 for the second.

Going from Cc1ccc(=O)n(-c2ccc(OC(F)(F)F)cc2)n1 to O=c1ccc(C(F)(F)F)cn1-c1ccc(OC(F)(F)F)cc1, the pEC50 falls from over 4.30 to under 3.70. The first is the more potent here.

Compared with CCOc1ccc(Oc2cc(=O)n(-c3ccc(OC(F)(F)F)cc3)cc2-c2cnn(C)c2)cc1C#N, Cn1cc(-c2cn(-c3ccc(OC(F)(F)F)cc3)c(=O)cc2N)cn1 is lower in pEC50: over 4.30 for the first, under 3.70 for the second. The first is the more potent here.

O=c1c2nsnc2c(-c2ccc(F)cc2)cn1-c1ccc(OC(F)(F)F)cc1 and O=c1c2nc[nH]c2c(-c2ccc(F)cc2)cn1-c1ccc(OC(F)(F)F)cc1 cannot be ordered by pEC50: under 3.70 for the first, under 3.70 for the second.

Cc1cc(=O)n(-c2ccccc2F)cc1-c1cnn(C)c1 and Cc1cc(=O)n(-c2ccc3[nH]cnc3c2)cc1-c1cnn(C)c1 cannot be ordered by pEC50: under 3.70 for the first, under 3.70 for the second.

Cn1cc(-c2c[nH]c(=O)c3[nH]ccc23)cn1 and CCOc1ccc(-n2cc(-c3cn[nH]c3)c3cc[nH]c3c2=O)c(C)c1 cannot be ordered by pEC50: over 4.30 for the first, over 4.30 for the second.

CC(C)OC(=O)Nc1cc(=O)n(-c2ccc(OC(F)(F)F)cc2)cc1-c1ccc(F)cc1 and CNc1cc(=O)n(-c2ccc(OC(F)(F)F)cc2)cc1-c1ccc(F)cc1 cannot be ordered by pEC50: under 3.70 for the first, under 3.70 for the second.

Cc1n[nH]c(C)c1-c1ccc(=O)n(-c2ccc(F)cc2)c1 and Cc1n[nH]c(C)c1-c1ccc(=O)n(-c2ccc(Cl)cc2)c1 cannot be ordered by pEC50: under 3.70 for the first, under 3.70 for the second.

First: CC(=O)Nc1cccc(-n2cc(-c3ccc(F)cc3)c(Oc3ccccc3)cc2=O)c1
Second: CC(=O)Nc1cccc(-n2cc(-c3ccc(F)cc3)c(C)cc2=O)c1
The pEC50 of the first is higher: over 4.30 for the first, under 3.70 for the second.

Cc1cc(=O)n(-c2ccc(OC(F)(F)F)cc2)cc1-c1ccc(F)c(Cl)c1 and Cc1cc(=O)n(-c2ccc(OC(F)(F)F)cc2)cc1-c1ccc2scnc2c1 cannot be ordered by pEC50: over 4.30 for the first, over 4.30 for the second.

Going from Cc1cc(=O)n(-c2ccc(OC(F)(F)F)cc2)cc1-c1ccc2c(c1)OC(C)(C)O2 to Cc1cc(=O)n(-c2ccc(OC(F)(F)F)cc2)cc1-c1ccc2ccn(C)c2c1, the pEC50 rises from under 3.70 to over 4.30. The second is the more potent here.

COCCOc1cc(=O)n(-c2ccc(OC(F)(F)F)cc2)cc1-c1ccc(F)cc1 and O=C1CCCN1CCOc1cc(=O)n(-c2ccc(OC(F)(F)F)cc2)cc1-c1ccc(F)cc1 cannot be ordered by pEC50: under 3.70 for the first, under 3.70 for the second.

Cn1cc(C2=CN(c3ccc(OC(F)(F)F)cc3)CC=C2Oc2ccc(C(N)=O)cc2)cn1 and Cn1cc(-c2cn(-c3ccc(OC(F)(F)F)cc3)c(=O)c3[nH]nnc23)cn1 cannot be ordered by pEC50: over 4.30 for the first, over 4.30 for the second.

Cn1cc(-c2cn(-c3ccccc3)c(=O)c3c2CCCC3)cn1 and Cn1cc(-c2cn(-c3ccc(OC(F)(F)F)cc3)c(=O)c3c2CCCC3)cn1 cannot be ordered by pEC50: over 4.30 for the first, over 4.30 for the second.

O=c1cc(NCc2ccccc2)c(-c2ccc(F)cc2)cn1-c1ccc(OC(F)(F)F)cc1 and O=C(NCc1ccccc1)c1cc(=O)n(-c2ccc(OC(F)(F)F)cc2)cc1-c1ccc(F)cc1 cannot be ordered by pEC50: under 3.70 for the first, under 3.70 for the second.

CC(=O)c1ccc(=O)n(-c2cccc(C(F)(F)F)c2)c1 and CC(=O)c1ccc(=O)n(-c2cccc(F)c2)c1 cannot be ordered by pEC50: under 3.70 for the first, under 3.70 for the second.

Cc1ccc(=O)n(-c2ccccc2)n1 and Cc1ccc(=O)n(-c2ccccc2F)c1 cannot be ordered by pEC50: under 3.70 for the first, under 3.70 for the second.

Compared with O=c1c2[nH]ncc2c(-c2ccc(F)cc2)cn1-c1ccc(OC(F)(F)F)cc1, O=C1COc2c(-c3ccc(F)cc3)cn(-c3ccc(OC(F)(F)F)cc3)c(=O)c2N1 is lower in pEC50: over 4.30 for the first, under 3.70 for the second. The first is the more potent here.

CC(=O)Nc1cccc(-n2cc(C(C)=O)ccc2=O)c1 and COc1cccc(-n2cc(-c3ccc(S(N)(=O)=O)cc3)ccc2=O)c1 cannot be ordered by pEC50: under 3.70 for the first, under 3.70 for the second.

First: Cc1ccc(=S)n(-c2cccc(F)c2)c1
Second: Cc1cc(=O)n(-c2ccccc2NC(N)=O)cc1-c1ccc(F)cc1
The pEC50 of the first is lower: under 3.70 for the first, over 4.30 for the second. The second is the more potent here.

O=C(Nc1cc(=O)n(-c2ccc(OC(F)(F)F)cc2)cc1-c1ccc(F)cc1)OCc1ccccc1 and CCCNC(=O)Nc1cc(=O)n(-c2ccc(OC(F)(F)F)cc2)cc1-c1ccc(F)cc1 cannot be ordered by pEC50: under 3.70 for the first, under 3.70 for the second.

Going from CCOc1ccc(-n2cc(-c3ccc(F)cc3)c(Cl)cc2=O)c(C)c1 to CCOc1ccc(-n2cc(-c3ccc(F)cc3)c(OC)cc2=O)c(C)c1, the pEC50 rises from under 3.70 to over 4.30.

Compared with CCn1cnc2c(=O)n(-c3ccc(OC(F)(F)F)cc3)cc(-c3cnn(C)c3)c21, CCn1cc2c(-c3cnn(C)c3)cn(-c3ccc(OC(F)(F)F)cc3)c(=O)c2n1 is higher in pEC50: under 3.70 for the first, over 4.30 for the second.

Cn1cc(-c2cn(-c3ccc(Cl)cc3)c(=O)c3c2ccn3C)cn1 and Cn1cc(-c2cn(-c3ccc(OC(F)(F)F)cc3)c(=O)c3c2ccn3Cc2ccccc2)cn1 cannot be ordered by pEC50: over 4.30 for the first, over 4.30 for the second.

Going from O=c1c2cccnc2c(-c2cn[nH]c2)cn1-c1ccc(OC(F)(F)F)cc1 to CCOc1ccc(-n2cc(-c3cn[nH]c3)c3ncccc3c2=O)c(C)c1, the pEC50 rises from under 3.70 to over 4.30. The second is the more potent here.

Compared with Cc1cc(=O)n(-c2ccc(OC(C)C)cc2C)cc1-c1cnn(C)c1, CCOc1ccc(-n2cc(-c3cnn(C)c3)c3nccnc3c2=O)c(C)c1 is higher in pEC50: under 3.70 for the first, over 4.30 for the second.

Cn1cc(-c2cn(-c3ccc(OC(F)(F)F)cc3)c(=O)c3nn(CCF)nc23)cn1 and CC(C)n1nnc2c(-c3cnn(C)c3)cn(-c3ccc(OC(F)(F)F)cc3)c(=O)c21 cannot be ordered by pEC50: over 4.30 for the first, over 4.30 for the second.

COc1ccc(-c2ccc(=O)n(-c3ccccc3F)c2)cc1 and CCOc1ccc(-n2cc(-c3ccc(F)cc3)c3nccnc3c2=O)c(C)c1 cannot be ordered by pEC50: under 3.70 for the first, under 3.70 for the second.

Going from CCn1cc(-c2cn(-c3ccc(OC(F)(F)F)cc3)c(=O)c3c2ncn3CC)cn1 to Cn1cc(-c2cn(-c3ccc(OC(F)(F)F)cc3)c(=O)cc2C(F)(F)F)cn1, the pEC50 falls from over 4.30 to under 3.70.

For O=c1cc(OCCN2CCOCC2)c(-c2ccc(F)cc2)cn1-c1ccc(OC(F)(F)F)cc1, the EC50 was “in the range around 125 µM”.
In the case of COc1ccc(-c2ccc(=O)n(-c3ccccc3Cl)c2)cc1, the EC50 was “in the range around 125 µM”.
With CCOc1ccc(-n2cc(-c3cnn(C)c3)c(NCc3ccncc3)cc2=O)c(C)c1 the EC50 was “in the range around 125 µM”.
For Cc1cc(=O)n(-c2ccc(Cl)cc2C)cc1-c1ccccc1, the EC50 was “in the range around 125 µM”.
With CCOc1ccc(-n2cc(-c3cnn(C)c3)c(OCCOC(C)C)cc2=O)c(C)c1 the EC50 was “in the range around 125 µM”.
For COCCOc1ccc(Oc2cc(=O)n(-c3ccc(OC(F)(F)F)cc3)cc2-c2cnn(C)c2)cc1, the EC50 was “in the range around 125 µM”.
With CCn1cnc2c(-c3cnn(C)c3)c[nH]c(=O)c21 the EC50 was “in the range around 125 µM”.
For O=c1ccc(C2CCCCC2)cn1-c1ccccc1, the EC50 was “in the range around 125 µM”.
For CCc1cc(=O)n(-c2ccc(OC(F)(F)F)cc2)cc1-c1ccc(F)cc1, the EC50 was “in the range around 125 µM”.
For Nc1cc(=O)n(-c2ccc(OC(F)(F)F)cc2)cc1-c1ccc(F)cc1, the EC50 was “in the range around 125 µM”.
In the case of Cc1cc(=O)n(-c2ccc(OC(F)(F)F)cc2)cc1-c1ccc2c(c1)oc(=O)n2CCO, the EC50 was “in the range around 125 µM”.
In the case of Cc1cc(=O)n(-c2ccccc2C)cc1-c1ccc(F)cc1, the EC50 was “in the range around 125 µM”.
For Cc1cc(-c2cnn(C)c2)cn(-c2ccc(OC(F)(F)F)cc2)c1=O, the EC50 was “in the range around 125 µM”.
In the case of CC(C)N1N=NC2C(=O)N(c3ccc(OC(F)(F)F)cc3)C=C(c3cnn(C)c3)C21 (stereo unspecified), the EC50 was “in the range around 125 µM”.
In the case of Cc1cc(=O)n(-c2ccc(OC(F)(F)F)cc2)cc1-c1ccc2c(c1)OCO2, the EC50 was “in the range around 125 µM”.
With CCOc1ccc(-n2cc(-c3ccc4ocnc4c3)c(C)cc2=O)c(C)c1 the EC50 was “in the range around 125 µM”.
With Cc1cc(=O)n(-c2ccc(OC(F)(F)F)cc2)cc1-c1ccc2ncsc2c1 the EC50 was “in the range around 125 µM”.
In the case of Cc1cc(=O)n(-c2ccc(Cl)cc2)cc1-c1ccc2scnc2c1, the EC50 was “in the range around 125 µM”.
With COc1ccc(CN(C)c2cc(=O)n(-c3ccc(OC(F)(F)F)cc3)cc2-c2cnn(C)c2)cc1 the EC50 was “in the range around 125 µM”.
For O=c1ccc(-c2ccc(F)cc2)cn1CCc1ccccc1, the EC50 was “in the range around 125 µM”.
For CCOc1ccc(-n2cc(-c3ccccc3)c(C)cc2=O)c(C)c1, the EC50 was “in the range around 125 µM”.
With Cc1ccc(-n2cc(-c3ccc(F)cc3)c(C)cc2=O)cc1 the EC50 was “in the range around 125 µM”.
For O=c1ccc(-c2cccc(Cl)c2)cn1-c1ccccc1F, the EC50 was “in the range around 125 µM”.
With Cc1cc(=O)n(-c2ccc(OC(F)(F)F)cc2)cc1-c1ccc2c(c1)OC(F)(F)O2 the EC50 was “in the range around 125 µM”.
With CNC(=O)Nc1cccc(-n2cc(-c3ccc(F)cc3)c(C)cc2=O)c1 the EC50 was “in the range around 125 µM”.
